Test results as given in US20250235486A1, “Method of Producing Insulin-Producing Cells” (Monash University, priority 2022, published 2025).

Experiments:
Type in all cases: cell-based
[1] = test system: H3K27me3 content at promoters in human exocrine cells; assay: Chromatin immunoprecipitation (anti-H3K27me3) qPCR in exocrine cells of a non-diabetic donor; details: GSK126 vs DMSO
Experimental: Chromatin immunoprecipitation assays in human exocrine cells were performed previously described (Rafehi H, et al. Vascular histone deacetylation by pharmacological HDAC inhibition. Genome Res 24, 1271-1284 (2014); Pirola L, et al. Genome-wide analysis distinguishes hyperglycemia regulated epigenetic signatures of primary vascular cells. Genome Res 21, 1601-1615 (2011)). Cells were fixed for 10 minutes with 1% formaldehyde and quenched for 10 mins with glycine (0.125 M) solution. Fixed cells were resuspended in sodium dodecyl (lauryl) sulfate (SDS) lysis buffer (1% SDS, 10 mM EDTA, 50 mM Tris-HCl pH 8.1) including a protease inhibitor cocktail (Roche Diagnostics GmBH, Mannheim, Germany) and homogenized followed by incubation on ice for 5 minutes. […] H3K27me3 content at the promoters of the INS, INS-IGF2, NGN3 and PDX1 genes were assessed by qPCR using primers designed from the integrative ENCODE resource (Zhang J, et al. An integrative ENCODE resource for cancer genomics. Nat Commun 11, 3696 (2020)).
Proteins were cross-linked to DNA and soluble chromatin fractionated by sonication. […] DNA was assessed by qPCR using amplimers specifically designed to detect human Ins chromatin domain genes (FIG. 5a). […]

[2] = test system: human pancreatic exocrine cells; assay: qRT-PCR gene expression in ex vivo pancreatic exocrine cells from non-diabetic and type 1 diabetic donors
From the text: Islets were purified by intraductal perfusion and digestion of the pancreases with collagenase AF-1 (SERVA/Nordmark, Germany) (Ricordi C et al. Automated method for isolation of human pancreatic islets. Diabetes 37, 413-420 (1988)), followed by purification using Ficoll density gradients (Barbaro B, et al. Improved human pancreatic islet purification with the refined UIC—UB density gradient. Transplantation 84, 1200-1203 (2007)). Purified islets, from low density gradient fractions, and acinar/ductal tissue, from high density fractions, were cultured in Miami Media 1A (Mediatech/Corning 98-021, USA) supplemented with 2.5% human serum albumin (Australian Red Cross, Melbourne, VIC, Australia), in a 37° C., 5% CO2 incubator.
Total RNA from human ex vivo pancreatic cells was isolated using TRIzol (Invitrogen) and RNeasy Kit (QIAGEN) including a DNase treatment. First-strand cDNA synthesis was performed using a high-capacity cDNA Reverse Transcription Kit (Applied Biosystems) according to the manufacturer's instructions. cDNA primers were designed using oligoperfect designer (Thermo Fisher Scientific), as shown in Table 2 and Table 3. Briefly, quantitative RT-PCR analyses were undertaken using the PrecisionFast 2× qPCR Master Mix (Primerdesign) and primers using Applied Biosystems 7500 Fast Real-Time PCR System. Each qPCR reaction contained: 6.5 μl qPCR Master Mix, 0.5 μl of forward and reverse primers, 3.5 μl H2O and 2 μl of previously synthesised cDNA, diluted 1/20. Expression levels of specific genes were tested and normalised to 18s ribosomal RNA housekeeping gene.
All cell incubations were performed in Miami Media 1A (Mediatech/Corning 98-021, USA) supplemented with 2.5% human serum albumin (Australian Red Cross, Melbourne, VIC, Australia), in a cell culture incubator at 37° C. in an atmosphere of 5% CO2 for 48 hr using non-treated 6 well culture plates (Corning).

[3] = test system: H3K27me3 or H3K9/14ac content at the promoters of INS-IGF2, NGN3 and PDX1 in human pancreatic ductal epithelial cells; assay: Quantitative PCR chromatin immunoprecipitation (q-PCR ChIP) after 2- and 7-day stimulation; details: 2-day stimulation (FIG. 12b)
Experimental: Approximately 5×10^6 cells were fixed in 1% formaldehyde for 10 minutes, with a further 10-minute incubation in 0.125M glycine to quench the cross-linking reaction. The fixed cell pellet was lysed following resuspension and homogenization in sodium dodecyl (lauryl) sulphate (SOS) lysis buffer (1% SOS, 10 mM EDTA, 50 mM Tris-HCl pH 8.1) with a protease inhibitor cocktail (Roche Diagnostics GmBH, Mannheim, Germany) included. Samples were incubated on ice for 5 minutes following which sonication was performed to shear chromatin between 200-600 bp. Sonicated chromatin was resuspended in ChIP Dilution Buffer (0.01% SOS, 1.1% Triton X-100, 1.2 mM EDTA, 16.7 mM Tris-HCl pH 8.0 and 167 mM NaCl). 20 μl of DynabeadsR Protein A (Invitrogen, Carlsbad, CA, USA) was added to each sample and pre-cleared. Overnight incubation at 4° C. with H3K27me3 or H3K9/14ac antibody was used for immunoprecipitation of chromatin, as previously described. Immunoprecipitates were collected by magnetic isolation and washed sequentially with low salt and high salt buffers. Immunoprecipitated DNA was then eluted from solution with 0.1 M NaHCO3 containing 1% SIDS. Protein-DNA cross-links were reversed by incubation of samples in Proteinase K (Sigma, St. Louis, MO, USA) for 2 hours at 62° C. DNA was purified using a Qiagen MinElute column (Qiagen Inc., Valencia, CA, USA). H3K27me3 or H3K9/14ac content at the promoters of the INS-IGF2, NGN3 and PDX1 genes were assessed by qPCR using primers designed from the integrative ENCODE resource.

[4] = 10 mM GSK126 (so in the source), 48 hr
[5] = 10 mM GSK126 (so in the source), 48 hr, non-diabetic and T1D donors

Compound: CC[C@H](C)n1cc(C)c2c(C(=O)NCc3c(C)cc(C)[nH]c3=O)cc(-c3ccc(N4CCNCC4)nc3)cc21 [GSK126, N-[(1,2-Dihydro-4,6-dimethyl-2-oxo-3-pyridinyl)methyl]-3-methyl-1-[(1S)-1-methylpropyl]-6-[6-(1-piperazinyl)-3-pyridinyl]-1H-indole-4-carboxamide]
- H3K27me3 content at the Ins and Igf2AS promoter (R1-R3) regions ([1]; non-diabetic donor (2)): Significant reduction
- H3K27me3 content on the Ngn3 promoter R1 ([1]; non-diabetic exocrine cells): marginally affected
- Amy2A (acinar marker) expression [2, 4]: did not significantly alter
- Ck19 (ductal marker) expression [2, 4]: did not significantly alter
- Ki67 (proliferative marker) expression [2, 4]: increased
- Txnip (glucose-sensor) expression [2, 4]: did not significantly alter
- Ins gene expression [2, 5]: significant expression
- Ngn3 mRNA expression [2, 5]: restored
- Pdx1 mRNA expression [2, 5]: restored
- Sox9 mRNA expression [2, 5]: restored
- MafA gene expression ([2]; ex vivo exocrine cells, GSK126): restored
- Nkx6.1 gene expression ([2]; ex vivo exocrine cells, GSK126): restored
- Sox11 gene expression ([2]; ex vivo exocrine cells, GSK126): restored
- H3K27me3 content of chromatin associated with NGN3 promoter [3]: significantly reduced
- H3K27me3 content of chromatin associated with PDX1 promoter [3]: significantly reduced
- H3K27me3 content of chromatin associated with the INS promoter domain [3]: significantly reduced
